Measurements from US11390637B2, “Salts of antiviral phosphonate analogues and process for preparation thereof” (CIPLA LIMITED, priority 2017, dated 2022).
Structures can show the parent of a compound that is named as a salt.

Key:
[1] = In-vitro intrinsic dissolution of 200 mg pellets of API without excipients; format: physicochemical; details: for % release of active from fumarate salt pellet: Table 7; for % release of active from fumarate salt pellet / % release of Compound (I) from the respective Salts: 200 mg pellet, 0.01N HCl, 37° C., paddle 75 rpm; for % release of Compound (I) from the respective Salts: Table 8; for dissolution profile compared to other salts: from the data of Table 8
Protocol: A tableting mixture (200 mg) comprising solely salts of (((1-(6-amino-9H-purin-9-yl)propan-2-yloxy)methyl) (phenoxy) phosphoryloxy) methyl pivalate-prepared according to any one of the examples 1 to 10 (i.e. with no excipients) was prepared and compressed to a pellet using an automatic KBR press operating at a compression pressure of 2 tones for 2 minutes.
Similarly a tableting mixture (200 mg) comprising a solely TAF (i.e. with no excipients) was prepared and compressed to a pellet using an automatic KBR press operating at a compression pressure of 2 tones for 2 minutes.
A tableting mixture (200 mg) comprising solely TDF (i.e. with no excipients) was prepared and compressed to a pellet using an automatic KBR press operating at a compression pressure of 2 tones for 2 minutes.
In-vitro dissolution studies were performed on the 200 mg pellet in a LAB INDIA DISSO 2000.
The pellet was fixed in a PFTE holder, such that only the pellet surface came into contact with the dissolution medium. The PFTE loaded holder was placed in the dissolution vessel containing 900 ml of 0.1M of HCl having […] at 37±0.5° C. Two pellets were measured for each run of the design of the experiments. Stirring was performed with a paddle rotating at 75 rpm. […]
Dissolution Media: 0.01N HCl
Bath temperature: 37.5° C.
Sample Preparation: Pellets were prepared by pressing sample with 2 ton pressure for 2 min
Note: Aliquots were analysed on HPLC.
The concentration of (((1-(6-amino-9H-purin-9-yl)propan-2-yloxy)methyl) (phenoxy) phosphoryloxy) methyl pivalate was quantified by HPLC UV method at a maximum wavelength of 300 nm under the conditions as specified below:
Standard Preparation: 25 mg standard dissolved to 25 ml with dissolution medium. 5 ml of this solution diluted to 25 ml with dissolution medium. Further 5 ml of this solution was diluted to 10 ml with diluent.
Sample Preparation: 200 mg of Sample pellets were prepared and subjected to dissolution. 10 ml of Aliquot was removed from the dissolution basket at predetermined time intervals. 5 ml of these aliquot was diluted to 10 ml with Diluent.
200 mg of input API of fumarate salt of (((1-(6-amino-9H-purin-9-yl)propan-2-yloxy)methyl) (phenoxy) phosphoryloxy) methyl pivalate used for pellet preparation.
The percentage of (((1-(6-amino-9H-purin-9-yl)propan-2-yloxy)methyl) (phenoxy) phosphoryloxy) methyl pivalate (TD), Tenofovir Alafenamide (TAF) and Tenofovir Disoproxil (TDF) released from the respective fumarate salt tablet were plotted against time as shown in FIG. 19. The intrinsic dissolution rate was derived from the slope of this curve.
To measure the intrinsic dissolution of the Salts of (((1-(6-amino-9H-purin-9-yl)propan-2-yloxy)methyl) (phenoxy) phosphoryloxy) methyl pivalate, samples were measured to compare the influence of the different parameter settings. At appropriate time intervals, an automated sample collector removes aliquots from the dissolution medium for analysis. The time interval for sampling can vary, for example, from 5 to 120 minutes, depending on the properties of the drug and dissolution medium used. Suitable dissolution equipment for these operations includes LAB INDIA DISSO 2000. Bath temperature—37.5° C.
200 mg of input API of each fumarate, oxalate, phosphate, citrate, succinate and tartrate Salts of (((1-(6-amino-9H-purin-9-yl)propan-2-yloxy)methyl) (phenoxy) phosphoryloxy) methyl pivalate used for pellet preparation.
The percentage of (((1-(6-amino-9H-purin-9-yl)propan-2-yloxy)methyl) (phenoxy) phosphoryloxy) methyl pivalate released from the respective salts tablet were plotted against time as shown in FIG. 20. The intrinsic dissolution rate was derived from the slope of this curve.

[2] = Hygroscopicity (statement, no method described); format: physicochemical; details: in words
[3] = Solubility in physiologically acceptable solvents (statement, no method described); details: in words

Structure (SMILES)	% release of active from fumarate salt pellet ([1]; 5 min) [%]	% release of active from fumarate salt pellet ([1]; 10 min) [%]	% release of active from fumarate salt pellet ([1]; 15 min) [%]	% release of active from fumarate salt pellet ([1]; 30 min) [%]	% release of active from fumarate salt pellet ([1]; 45 min) [%]	% release of active from fumarate salt pellet ([1]; 60 min) [%]	% release of active from fumarate salt pellet ([1]; 90 min) [%]	% release of active from fumarate salt pellet ([1]; 120 min) [%]	% release of Compound (I) from the respective Salts ([1]; 5 min) [%]	% release of Compound (I) from the respective Salts ([1]; 15 min) [%]	% release of Compound (I) from the respective Salts ([1]; 30 min) [%]	% release of Compound (I) from the respective Salts ([1]; 45 min) [%]	% release of Compound (I) from the respective Salts ([1]; 60 min) [%]	% release of Compound (I) from the respective Salts ([1]; 90 min) [%]	% release of Compound (I) from the respective Salts ([1]; 120 min) [%]	% release of Compound (I) from the respective Salts ([1]; 150 min) [%]	% release of Compound (I) from the respective Salts ([1]; 180 min) [%]	% release of Compound (I) from the respective Salts ([1]; 210 min) [%]	% release of Compound (I) from the respective Salts ([1]; 240 min) [%]	hygroscopicity [2]	also measured
CC(C)OC(=O)[C@H](C)N[P@](=O)(CO[C@H](C)Cn1cnc2c(N)ncnc21)Oc1ccccc1 [TAF, Tenofovir Alafenamide Fumarate, reference compound]	6	7	9	16	24	31	46	60	–	–	–	–	–	–	–	–	–	–	–	–	–
CC(C)OC(=O)OCOP(=O)(CO[C@H](C)Cn1cnc2c(N)ncnc21)OCOC(=O)OC(C)C [TDF, Tenofovir Disoproxil Fumarate, reference compound]	8	5	7	13	19	26	37	50	–	–	–	–	–	–	–	–	–	–	–	–	–
CC(Cn1cnc2c(N)ncnc21)OCP(=O)(OCOC(=O)C(C)(C)C)Oc1ccccc1.O=P(O)(O)O (stereo not shown) [Phosphate, (((1-(6-amino-9H-purin-9-yl)propan-2-yloxy)methyl) (phenoxy)phosphoryloxy) methyl pivalate phosphoric acid salt]	–	–	–	–	–	–	–	–	19	59	103	104	105	105	106	105	104	104	105	not hygroscopic	dissolution profile compared to other salts ([1]; in words): fastest dissolution profile; solubility in physiologically acceptable solvents [3]: readily soluble
CC(Cn1cnc2c(N)ncnc21)OCP(=O)(OCOC(=O)C(C)(C)C)Oc1ccccc1.O=C(O)C(O)C(O)C(=O)O (stereo not shown) [Tartrate, (((1-(6-amino-9H-purin-9-yl)propan-2-yloxy)methyl) (phenoxy)phosphoryloxy) methyl pivalate tartaric acid salt]	–	–	–	–	–	–	–	–	2	6	12	17	24	35	47	59	70	80	88	–	–
CC(Cn1cnc2c(N)ncnc21)OCP(=O)(OCOC(=O)C(C)(C)C)Oc1ccccc1.O=C(O)C(=O)O (stereo not shown) [Oxalate, (((1-(6-amino-9H-purin-9-yl)propan-2-yloxy)methyl) (phenoxy)phosphoryloxy) methyl pivalate oxalic acid salt]	–	–	–	–	–	–	–	–	2	4	7	10	15	23	31	40	46	53	60	not hygroscopic	dissolution profile compared to other salts ([1]; in words): slowest dissolution profile; solubility in physiologically acceptable solvents [3]: readily soluble
CC(Cn1cnc2c(N)ncnc21)OCP(=O)(OCOC(=O)C(C)(C)C)Oc1ccccc1.O=C(O)CCC(=O)O (stereo not shown) [Succinate, (((1-(6-amino-9H-purin-9-yl)propan-2-yloxy)methyl) (phenoxy)phosphoryloxy) methyl pivalate succinic acid salt]	–	–	–	–	–	–	–	–	3	3	16	23	30	45	59	74	85	90	92	not hygroscopic	solubility in physiologically acceptable solvents [3]: readily soluble
CC(Cn1cnc2c(N)ncnc21)OCP(=O)(OCOC(=O)C(C)(C)C)Oc1ccccc1.O=C(O)/C=C/C(=O)O (stereo not shown) [Fumarate, (((1-(6-amino-9H-purin-9-yl)propan-2-yloxy)methyl) (phenoxy)phosphoryloxy) methyl pivalate fumaric acid salt]	7	5	6	12	18	24	35	45	3	7	12	18	24	35	45	56	66	75	83	–	dissolution profile compared with TAF and TDF ([1]; in words, from the data of Table 7): slow dissolution profile than TAF and TDF
